The text below walks through data of ChEMBL document CHEMBL1201862, “PubChem BioAssay data set” (2004).

In general, IC50 refers to the point on the concentration scale where inhibition reaches its midpoint. One may read the CC50 as the concentration that lowers cell viability or growth by half. The AC50 is the midpoint of the concentration-response curve, whichever way the signal moves.

Activity calls are given as the source filed them.

For assay [1], the system named is Streptococcus sp. 'group A'. The assay is described as follows: Streptococcus pyogenes SK(-)GAS viability under kanamycin – luminescence, BacTiterGlo, confirmation, counter-screen for streptokinase expression inhibitor project, dose response (AID 1900). The format is functional, organism-based. Background: A counterscreen serves to expose hits that act by an unwanted route or on another target.

The next assay relates to Streptococcus. The assay is described as follows: GAS UMAA2166 growth inhibition – luminescence, BacTiterGlo, counter-screen for streptokinase expression inhibitor project, dose response (AID 1915).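 Further: potency for reduction of bacterial viability or growth.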 The class given is functional, organism-based.
Assay [2] deals with Intestinal-type alkaline phosphatase (Mus musculus, UniProt P24822). Put plainly: PubChem AID 488875. The class given is functional.
Sequence of Intestinal-type alkaline phosphatase (Mus musculus, UniProt P24822) (P24822 whole entry): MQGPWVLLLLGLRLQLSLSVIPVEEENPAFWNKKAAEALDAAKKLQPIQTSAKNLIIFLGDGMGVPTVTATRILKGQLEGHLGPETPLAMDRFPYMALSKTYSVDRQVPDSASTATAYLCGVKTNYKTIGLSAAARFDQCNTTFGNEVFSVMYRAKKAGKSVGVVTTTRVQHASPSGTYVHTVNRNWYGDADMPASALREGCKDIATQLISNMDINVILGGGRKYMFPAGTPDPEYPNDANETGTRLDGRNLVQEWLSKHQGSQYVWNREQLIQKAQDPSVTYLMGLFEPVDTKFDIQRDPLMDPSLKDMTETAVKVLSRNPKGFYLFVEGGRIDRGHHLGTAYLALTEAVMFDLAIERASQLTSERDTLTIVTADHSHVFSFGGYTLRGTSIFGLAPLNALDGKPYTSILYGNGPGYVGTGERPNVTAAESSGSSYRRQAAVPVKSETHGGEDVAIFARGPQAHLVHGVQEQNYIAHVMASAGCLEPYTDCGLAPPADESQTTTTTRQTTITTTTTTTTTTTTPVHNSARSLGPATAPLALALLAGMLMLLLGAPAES
Assay [3] deals with T1, Intestinal-type alkaline phosphatase (Homo sapiens, UniProt P09923). Put plainly: human intestinal alkaline phosphatase activators, dose response, biochemical, luminescence, uHTS hits (AID 463120). The format is functional.
T1 sequence (P09923 whole entry): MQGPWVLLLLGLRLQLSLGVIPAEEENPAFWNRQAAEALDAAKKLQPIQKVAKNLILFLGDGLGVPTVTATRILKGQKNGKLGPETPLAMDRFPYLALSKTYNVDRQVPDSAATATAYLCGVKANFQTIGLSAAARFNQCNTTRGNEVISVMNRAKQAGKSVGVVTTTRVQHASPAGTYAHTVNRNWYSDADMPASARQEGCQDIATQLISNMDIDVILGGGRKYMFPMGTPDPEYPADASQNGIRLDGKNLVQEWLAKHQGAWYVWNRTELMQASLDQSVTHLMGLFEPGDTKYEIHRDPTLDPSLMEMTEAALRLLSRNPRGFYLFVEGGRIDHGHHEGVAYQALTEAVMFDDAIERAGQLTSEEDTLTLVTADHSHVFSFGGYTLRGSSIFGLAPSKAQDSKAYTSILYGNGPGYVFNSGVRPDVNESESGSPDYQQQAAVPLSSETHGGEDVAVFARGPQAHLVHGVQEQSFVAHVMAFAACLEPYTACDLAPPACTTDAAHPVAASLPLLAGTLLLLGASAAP
The target in assay [4] is T1, Intestinal-type alkaline phosphatase. The assay is described as follows: activation of human intestinal alkaline phosphatase – biochemical, luminescent, uHTS hits, set 2, dose response (AID 488817).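 Further: potency of activators that raise enzyme activity.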 The format is functional.
In assay [5] the target is T2, High affinity choline transporter 1 (Homo sapiens, UniProt Q9GZV3).
T2 sequence (Q9GZV3 whole entry): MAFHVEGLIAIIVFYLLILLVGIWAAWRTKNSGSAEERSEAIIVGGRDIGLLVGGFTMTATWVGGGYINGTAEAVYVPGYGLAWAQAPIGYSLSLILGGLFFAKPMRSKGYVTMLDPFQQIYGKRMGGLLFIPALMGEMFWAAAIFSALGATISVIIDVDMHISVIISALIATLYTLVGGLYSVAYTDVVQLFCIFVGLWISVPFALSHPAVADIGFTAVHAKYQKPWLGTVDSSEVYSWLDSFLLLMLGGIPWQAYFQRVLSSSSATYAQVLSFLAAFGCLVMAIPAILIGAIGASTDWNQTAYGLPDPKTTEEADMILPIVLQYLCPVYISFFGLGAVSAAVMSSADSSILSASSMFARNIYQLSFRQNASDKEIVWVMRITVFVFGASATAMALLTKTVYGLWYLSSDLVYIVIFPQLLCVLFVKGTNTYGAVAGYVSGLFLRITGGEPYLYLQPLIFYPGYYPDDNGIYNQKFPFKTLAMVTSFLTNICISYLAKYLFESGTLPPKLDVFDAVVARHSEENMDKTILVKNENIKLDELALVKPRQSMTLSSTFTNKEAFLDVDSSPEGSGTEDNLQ
Put plainly: human choline transporter blockers, potency – cell-based, 5-point CRC, membrane potential dye, dose response (AID 504840). The class given is functional.

For another assay, the target named is T3, Streptokinase A (Streptococcus pyogenes serotype M1, UniProt P10520).
T3 sequence (P10520 whole entry): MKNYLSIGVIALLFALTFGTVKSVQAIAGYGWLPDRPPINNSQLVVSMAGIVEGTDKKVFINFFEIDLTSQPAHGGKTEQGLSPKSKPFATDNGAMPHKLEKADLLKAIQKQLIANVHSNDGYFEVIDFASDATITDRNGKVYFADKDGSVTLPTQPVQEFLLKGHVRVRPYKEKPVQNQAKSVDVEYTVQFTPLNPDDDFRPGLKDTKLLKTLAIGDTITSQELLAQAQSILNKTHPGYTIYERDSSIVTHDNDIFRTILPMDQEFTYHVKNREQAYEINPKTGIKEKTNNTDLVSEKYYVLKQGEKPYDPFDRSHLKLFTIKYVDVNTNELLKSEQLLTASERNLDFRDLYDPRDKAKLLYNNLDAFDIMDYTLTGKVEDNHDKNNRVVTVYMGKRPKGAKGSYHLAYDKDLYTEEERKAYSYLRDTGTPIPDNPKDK
The assay is described as follows: viability-normalized secreted streptokinase activity reduction – plasminogen activation absorbance, OD405, dose response (AID 1914).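 Further: secreted streptokinase activity via plasminogen activation per viability signal from cell pellet.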 The format is functional, Streptococcus pyogenes M1 GAS.

In assay [6] the target is T4, Alkaline phosphatase, tissue-nonspecific isozyme (Homo sapiens, UniProt P05186).
T4 sequence (P05186 whole entry): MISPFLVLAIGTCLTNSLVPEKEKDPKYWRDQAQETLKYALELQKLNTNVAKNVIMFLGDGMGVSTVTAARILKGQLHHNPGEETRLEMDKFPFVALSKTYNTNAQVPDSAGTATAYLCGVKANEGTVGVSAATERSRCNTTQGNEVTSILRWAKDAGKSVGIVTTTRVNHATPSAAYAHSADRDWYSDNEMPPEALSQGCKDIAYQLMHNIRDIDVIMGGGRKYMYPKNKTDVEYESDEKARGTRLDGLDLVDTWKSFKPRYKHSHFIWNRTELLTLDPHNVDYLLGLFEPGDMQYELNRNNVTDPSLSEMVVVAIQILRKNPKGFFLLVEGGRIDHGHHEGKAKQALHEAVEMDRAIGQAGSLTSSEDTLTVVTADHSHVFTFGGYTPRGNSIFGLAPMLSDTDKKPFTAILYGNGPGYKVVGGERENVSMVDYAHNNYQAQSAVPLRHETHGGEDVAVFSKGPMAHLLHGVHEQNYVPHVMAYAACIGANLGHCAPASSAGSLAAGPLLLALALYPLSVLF
Put plainly: activation of tissue-nonspecific alkaline phosphatase – biochemical, TNAP isozyme, human IAP uHTS hits, selectivity assay for human IAP activator project, dose response (AID 488886).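 Further: potency of compounds raising TNAP activity as a selectivity check on IAP activators.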 The class given is functional.

For assay [7], the target named is Dual specificity protein phosphatase 3 (Homo sapiens, UniProt P51452). Put plainly: SAR VHR1 Fluorescent Assay for In Vitro dose response studies Set 2. [Related pubchem assays (depositor defined):AID1654, AID1661, AID1878]. The format is functional.
Sequence of Dual specificity protein phosphatase 3 (P51452 whole entry): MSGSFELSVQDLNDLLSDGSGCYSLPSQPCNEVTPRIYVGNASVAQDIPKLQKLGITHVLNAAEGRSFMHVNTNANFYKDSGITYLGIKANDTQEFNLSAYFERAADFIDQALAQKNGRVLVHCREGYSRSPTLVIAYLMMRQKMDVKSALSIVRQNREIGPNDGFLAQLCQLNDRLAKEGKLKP
The target of assay [8] is T5, Tyrosine-protein phosphatase non-receptor type 7 (Homo sapiens, UniProt P35236).
T5 sequence (P35236 whole entry): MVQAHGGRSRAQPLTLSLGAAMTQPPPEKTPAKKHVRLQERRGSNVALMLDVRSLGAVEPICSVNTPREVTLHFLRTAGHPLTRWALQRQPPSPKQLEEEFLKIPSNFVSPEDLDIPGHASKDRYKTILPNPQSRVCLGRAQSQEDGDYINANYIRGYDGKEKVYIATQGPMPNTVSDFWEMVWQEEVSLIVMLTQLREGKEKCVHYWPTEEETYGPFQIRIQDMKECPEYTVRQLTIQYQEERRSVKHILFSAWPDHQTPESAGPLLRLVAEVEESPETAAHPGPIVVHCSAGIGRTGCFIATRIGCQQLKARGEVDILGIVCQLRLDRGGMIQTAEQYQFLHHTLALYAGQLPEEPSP
The assay is described as follows: redox-active compounds inhibiting HePTP phosphatase – biochemical, fluorescence, mechanism study (AID 2068). The class given is functional.

Assay [9] deals with Dual specificity protein phosphatase 6 (Rattus norvegicus, UniProt Q64346). The class given is functional.
Sequence of Dual specificity protein phosphatase 6 (Q64346 whole entry): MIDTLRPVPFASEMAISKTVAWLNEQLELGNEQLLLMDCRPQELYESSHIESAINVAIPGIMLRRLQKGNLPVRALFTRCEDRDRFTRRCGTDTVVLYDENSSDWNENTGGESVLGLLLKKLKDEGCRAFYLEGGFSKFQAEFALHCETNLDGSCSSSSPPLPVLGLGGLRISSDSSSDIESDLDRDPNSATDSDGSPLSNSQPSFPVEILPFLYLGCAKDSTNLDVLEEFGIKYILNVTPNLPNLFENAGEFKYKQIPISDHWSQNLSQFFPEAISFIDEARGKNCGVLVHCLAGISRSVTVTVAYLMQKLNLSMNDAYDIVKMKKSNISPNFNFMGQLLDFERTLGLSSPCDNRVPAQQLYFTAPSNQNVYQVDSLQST
Assay [10] is described as follows: viability of uninfected HEp-2 cells – cell-based, HTS, cytotoxicity control for RSV inhibitor project, dose response (AID 2410). The class given is functional. The conditions noted are these: human respiratory syncytial virus.
Assay [11] in a line: Luminescence Cell-Based Dose Retest to Confirm Inhibitors of Cancer Stem Cells. [Related pubchem assays (depositor defined):AID2717, AID2721]. The format is functional. The conditions noted are these: Homo sapiens.
Assay [12] is described as follows: viability loss of HMLE_sh_eGFP cells – cell-based, luminescence, counter-screen for HMLE_sh_ECad selective toxicity project, dose response (AID 463074).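 Further: HMLE human mammary epithelial cells expressing control shRNA against eGFP.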 The format is functional, Homo sapiens.
Assay [13] can be described thus: restored growth of temperature-sensitive Burl-1 yeast – whole organism, S. cerevisiae, Burl-1 ts mutant, luminescence, counter-screen for SUMOylation pathway inhibitor project, dose response (AID 463199). The class given is functional.
In a further assay the test system is MDCK. Put plainly: antiviral activity against H1N1 influenza, dose response, cell-based, strain KY136 (AID 540257). The class given is functional. The conditions noted are these: Canis lupus familiaris.
Assay [14] deals with FAD-linked sulfhydryl oxidase ALR (Homo sapiens, UniProt P55789). Put plainly: ALR-catalysed DTT oxidation blockers – biochemical, H2O2 detection, luminescence, cherry-pick, dose response (AID 493248).
Sequence of FAD-linked sulfhydryl oxidase ALR (P55789 whole entry): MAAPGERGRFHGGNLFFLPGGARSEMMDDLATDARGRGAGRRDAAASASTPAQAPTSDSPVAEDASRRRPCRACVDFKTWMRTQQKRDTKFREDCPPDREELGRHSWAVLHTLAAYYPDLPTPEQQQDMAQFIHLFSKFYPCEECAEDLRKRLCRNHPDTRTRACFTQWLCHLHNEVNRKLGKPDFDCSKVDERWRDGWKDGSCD
Another assay relates to Candida albicans. Put plainly: antifungal activity against resistant Candida strain – CaCi-8, fluconazole, Alamar Blue, dry powder, dose response (AID 488807). The format is functional, organism-based. (The colour change of resazurin is a common sign of viable cells or microbes.)
Assay [15] deals with T6, Corticotropin-releasing factor receptor 2/Corticotropin-releasing factor-binding protein (Homo sapiens, UniProt P24387+Q13324).
T6 sequence (Q13324 whole entry): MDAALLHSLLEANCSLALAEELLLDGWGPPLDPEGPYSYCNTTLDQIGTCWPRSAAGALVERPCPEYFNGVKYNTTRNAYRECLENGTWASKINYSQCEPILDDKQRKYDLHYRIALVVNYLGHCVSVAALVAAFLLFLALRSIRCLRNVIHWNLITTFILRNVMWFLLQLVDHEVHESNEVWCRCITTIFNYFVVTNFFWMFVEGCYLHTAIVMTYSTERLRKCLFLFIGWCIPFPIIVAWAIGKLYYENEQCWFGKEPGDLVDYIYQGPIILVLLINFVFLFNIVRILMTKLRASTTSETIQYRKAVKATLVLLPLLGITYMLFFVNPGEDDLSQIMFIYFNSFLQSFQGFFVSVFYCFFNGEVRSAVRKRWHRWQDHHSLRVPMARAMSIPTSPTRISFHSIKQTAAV
T6 sequence (P24387 whole entry): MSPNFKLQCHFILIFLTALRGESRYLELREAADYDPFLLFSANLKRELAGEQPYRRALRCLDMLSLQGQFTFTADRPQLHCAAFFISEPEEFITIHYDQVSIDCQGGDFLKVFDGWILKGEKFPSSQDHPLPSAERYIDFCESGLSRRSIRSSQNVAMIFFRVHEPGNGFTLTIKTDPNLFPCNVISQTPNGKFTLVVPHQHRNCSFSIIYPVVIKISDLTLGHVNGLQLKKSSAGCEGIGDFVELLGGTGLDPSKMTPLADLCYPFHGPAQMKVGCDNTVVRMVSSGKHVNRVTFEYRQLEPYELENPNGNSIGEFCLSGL
Put plainly: activators of CRF receptor 2 with binding protein – uHTS hits, confirmation (AID 602473). The conditions noted are these: read-out: EC50_Mean. The class given is functional.

Assay [16] concerns the target UDP-galactopyranose mutase (Mycobacterium tuberculosis, UniProt P9WIQ1). Put plainly: Inhibitors of Mycobacterium tuberculosis UDP-galactopyranose mutase (UGM) enzyme Measured in Biochemical System Using Plate Reader - 2105-02_Inhibitor_Dose_CherryPick_Activity. [Related pubchem assays (depositor defined):AID504439].
For a further assay, the target named is Keap1/Nrf2 (Homo sapiens, UniProt Q14145). Put plainly: disruptors of Keap1 binding to Nrf2 peptide – biochemical, fluorescence polarization, cherry-picked samples, dose response (AID 588683). (Fluorescence polarisation rises when a labelled molecule tumbles more slowly, as on binding a larger partner.)
Sequence of Keap1/Nrf2 (Q16236 whole entry): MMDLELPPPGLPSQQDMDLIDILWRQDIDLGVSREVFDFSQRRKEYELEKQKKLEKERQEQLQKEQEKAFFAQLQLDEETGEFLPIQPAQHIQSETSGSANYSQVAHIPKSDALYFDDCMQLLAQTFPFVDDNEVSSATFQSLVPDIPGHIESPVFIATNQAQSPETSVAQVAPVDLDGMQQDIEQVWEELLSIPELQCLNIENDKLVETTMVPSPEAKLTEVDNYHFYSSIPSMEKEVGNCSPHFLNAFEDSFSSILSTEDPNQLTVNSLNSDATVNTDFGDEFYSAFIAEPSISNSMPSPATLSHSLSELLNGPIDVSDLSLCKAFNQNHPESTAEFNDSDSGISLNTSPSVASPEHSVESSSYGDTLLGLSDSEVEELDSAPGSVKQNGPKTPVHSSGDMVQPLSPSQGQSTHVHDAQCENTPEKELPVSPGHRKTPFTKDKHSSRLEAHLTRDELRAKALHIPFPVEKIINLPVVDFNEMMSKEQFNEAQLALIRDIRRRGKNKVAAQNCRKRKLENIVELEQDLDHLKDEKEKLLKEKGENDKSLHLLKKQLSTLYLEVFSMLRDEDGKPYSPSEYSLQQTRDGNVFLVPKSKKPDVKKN
Sequence of Keap1/Nrf2 (Q14145 whole entry): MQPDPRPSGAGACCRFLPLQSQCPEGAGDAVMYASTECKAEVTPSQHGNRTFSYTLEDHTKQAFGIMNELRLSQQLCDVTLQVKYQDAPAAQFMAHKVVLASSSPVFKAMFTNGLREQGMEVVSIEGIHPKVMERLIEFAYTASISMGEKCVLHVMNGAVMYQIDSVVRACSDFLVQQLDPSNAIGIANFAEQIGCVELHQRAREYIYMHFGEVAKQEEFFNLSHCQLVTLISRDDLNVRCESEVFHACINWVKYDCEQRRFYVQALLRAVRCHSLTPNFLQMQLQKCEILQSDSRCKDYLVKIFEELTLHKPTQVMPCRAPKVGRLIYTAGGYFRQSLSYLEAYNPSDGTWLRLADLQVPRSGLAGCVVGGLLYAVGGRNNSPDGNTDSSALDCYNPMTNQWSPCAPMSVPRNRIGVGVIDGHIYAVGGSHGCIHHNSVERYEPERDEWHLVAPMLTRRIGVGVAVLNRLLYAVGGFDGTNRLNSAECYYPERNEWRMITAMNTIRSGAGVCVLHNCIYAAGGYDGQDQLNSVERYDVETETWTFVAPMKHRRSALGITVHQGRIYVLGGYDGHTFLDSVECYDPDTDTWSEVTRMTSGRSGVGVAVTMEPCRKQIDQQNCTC

Sequence of UDP-galactopyranose mutase (P9WIQ1 whole entry): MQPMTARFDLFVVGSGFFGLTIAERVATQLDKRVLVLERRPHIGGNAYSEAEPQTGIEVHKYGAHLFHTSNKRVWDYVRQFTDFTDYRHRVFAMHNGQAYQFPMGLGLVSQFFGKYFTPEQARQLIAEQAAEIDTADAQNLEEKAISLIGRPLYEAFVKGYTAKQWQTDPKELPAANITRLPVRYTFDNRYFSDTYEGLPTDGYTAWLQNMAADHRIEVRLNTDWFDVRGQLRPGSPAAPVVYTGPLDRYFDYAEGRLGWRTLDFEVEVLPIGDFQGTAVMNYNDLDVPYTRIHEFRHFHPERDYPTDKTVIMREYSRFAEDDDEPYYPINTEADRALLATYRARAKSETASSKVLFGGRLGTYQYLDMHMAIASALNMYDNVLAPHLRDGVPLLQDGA

For `Cc1cccc(CC(Cc2nc3ccccc3[nH]2)c2nc3ccccc3[nH]2)c1` (centres undefined), the EC50 is 9.33 µM (active) in [1]; 26.7 µM (active) with Streptococcus; 28.9 µM (active) in assay [2]; 29.8 µM (active) in assay [3]; 47.7 µM (active) in assay [4]; > 150 µM (not active) at Streptokinase A. For the same compound, the EC50 in assay [6] is 62.1 µM (active). In assay [5], the IC50 was 12.6 µM (active).

As for `NS(=O)(=O)c1cc(C(=O)Nc2ccc3c(c2)CCC3)ccc1Cl`, the IC50 in assay [7], in assay [8] and in [9] was > 100 µM (inactive) in each case. The CC50 in [10] was 39 µM (active).

In the case of `Cc1ccc(N(C)S(=O)(=O)c2cccc(C(=O)Nc3nc4ccccc4[nH]3)c2)cc1`, the values for the AC50 in [11] and in assay [12] were 4.1 µM (active) and 32.2 µM (active), respectively. Also, the EC50 was 1.71 µM (active) in assay [1], 17.4 µM (active) with Streptococcus and > 150 µM (not active) at Streptokinase A.

Consider `CC(C)CCn1c(=O)c2ccccc2c2ccccc2c1=O`, for which the AC50 in assay [13] was 58.1 µM (active).

Take `Cc1ccc(N2C(=O)C(CC(=O)Nc3cccc(F)c3)N(C3CC3)C2=O)cc1` (centres undefined): the IC50 with MDCK is 52.3 µM (active). In addition, in [14], the AC50 is < 0.014 µM (active).

For the compound `O=C(Cn1c2ccccc2c2nc3n(c(=O)c21)CCS3)N1CCCC1`, the AC50 in the assay on Candida albicans is 2.91 µM (active).

Regarding `CN1/C(=C\C=C(C#N)C#N)C(C)(C)c2ccccc21`, in assay [15], the EC50 is 10.8 µM (active). Further, the figures for the AC50 (in assay [16]; at Keap1/Nrf2) were 114 µM (active) and 28.7 µM (active), respectively.
